# Columns and labels:
# [1] = parameters: method as in PMID 16551570; conditions: oral; cited from earlier work
# [2] = parameters: method as in PMID 7666987; conditions: 5-year period; cited from earlier work
# [3] = Open stability study (25 °C, 60% RH, open conditions); format: physicochemical; conditions: after 4 weeks, content at day 0 set as 100%
# Method: Open stability was conducted at 25 °C, 60% RH, under open conditions without package and nitrogen protection. Accelerated stability was conducted at 40 °C, 75% RH, packaged with aluminum foil bags. The ubiquinol polymorph II and UQ-NC cocrystal were taken out at various intervals during exposure (open stability at 0, 3, 7, 14, 21, and 28 days and accelerated stability at 0, 1, 2, 3, and 6 months).
# An Agilent 1260 series HPLC was used to determine the content of ubiquinol. The HPLC was equipped with a quaternary pump (G1311C), diode-array detector (G1315D), and a 4.6 mm × 100 mm, 2.7 μm packing L1 column. The detector was set at 290 nm. A mobile phase consisting of methanol and n-hexane (85/15, v/v) was run for 10 min at 1.5 mL/min. An injection of 20 μL was performed and the column temperature was set at 35 °C.
# [4] = Powder dissolution in simulated intestinal fluid (SIF) with 0.5% tween 80; format: physicochemical; conditions: SIF with 0.5% tween 80, 37 °C, up to 180 min
# Method: (§1) Powder dissolution experiments were conducted in simulated intestinal fluid (SIF) and simulated gastric fluid (SGF) with 0.5% tween 80 at 37 °C using a Mini-Bath dissolution device equipped with a Julabo ED-5 heater/circulator. SIF was prepared by dissolving 6.8 g of KH2PO4 in 500 mL of water and then the pH was adjusted to 6.8 with 0.1 mol/L og NaOH solution. In total, 10 g of pancreatin was added and finally the solution was diluted to 1000 mL with water to obtain the SIF. SGF was prepared by mixing 16.4 mL of 10% HCl solution, 800 mL of water, and 10g of pepsin. Finally, the solution was diluted to 1000 mL with water to obtain the SGF. A total of 9.3 mg of cocrystal and 8.2 mg of polymorph II were added into 20 mL of the buffer solution. The stirring speed was set to 75 rpm. To minimize the size effect on the dissolution results, the ubiquinol cocrystal and polymorph II were sieved through 80-mesh sieves. Samples were collected at 5, 15, 20, 25, 30, 40, 50, 60, 80, 130, and 180 min each time, and were filtered through the 0.45 μm nylon filters. The concentration of ubiquinol was determined using HPLC. The detailed HPLC analysis method is described in Section 2.10.
# (§2) An Agilent 1260 series HPLC was used to determine the content of ubiquinol. The HPLC was equipped with a quaternary pump (G1311C), diode-array detector (G1315D), and a 4.6 mm × 100 mm, 2.7 μm packing L1 column. […]
# [5] = Powder dissolution in simulated gastric fluid (SGF) with 0.5% tween 80; format: physicochemical; conditions: SGF with 0.5% tween 80, 37 °C, up to 180 min
# Method: as §1, §2
# [6] = Pharmacokinetic study in male Sprague Dawley rats, plasma total coenzyme Q10; format: in vivo; conditions: rat, gavage, 100 mg/kg as ubiquinol equivalents
# Method: Pharmacokinetic experiments were conducted on male Sprague Dawley rats to compare the oral exposure of the UQ-NC cocrystal and the ubiquinol marketed form II. The two ubiquinol samples were dispersed homogeneously in 0.5% CMC-Na (sodium carboxymethylcellulose) and 0.5% tween 80 aqueous solution to obtain the suspension of 10 mg/mL of ubiquinol. Twelve male Sprague Dawley rats weighing […] were randomly allocated into two groups (six rats in each group). Each received gavage administration at a dose of 100 mg/kg body (expressed as ubiquinol equivalents). After this administration, approximately 200 μL of blood sample was collected from the orbital sinus into heparinized tubes at 0, 1, 2, 3, 4, 6, 8, and 24 h for each rat.
# In this experiment, the whole process was protected from light. An aliquot of 100 µL of plasma sample was added to 100 µL of p-benzoquinone and then placed for 10 min after vortex mixing. Next, a 400 µL methanol solution containing 1 µg/mL of IS Q9 and 1mL of n-hexane was added. The mixture was vortexed for 5 min and centrifuged at 14,000 rpm for 1 min. In total, 0.825 mL of the upper extract was transferred and dried under the condition of 30 °C nitrogen, and 200 µL of ethanol equal solution was added for re dissolution, vortexed, and mixed well. An aliquot of 4.00 µL of supernatant was injected for an LC-MS/MS analysis.
# The quantification of coenzyme Q10 in the plasma samples was accomplished using an AB Sciex Triple Quad 4500 LC-MS instrument manufactured by SCIEX Co., Ltd., Framingham, MA, USA. Chromatography consisted of a Column NO.ZORBAX Eclipse Plus C18 (50 mm × 4.6 mm, 1.8 μm). The mobile phase consisted of acetonitrile and alcohol (50/50, v/v) at a flow rate of 1.0 mL min-1. An injection of 10 μL was performed and the column temperature was set to 40 °C. The detector was set at 290 nm. Multiple reaction monitoring modes (MRM) were used to perform the detection and quantification, with m/z 863.8→197.4 for coenzyme Q10. The DAS 2.0 program was used to perform the PK analysis.
# [7] = parameters: method as in earlier work; conditions: after four weeks, open conditions, 25 °C; cited from earlier work
# [8] = parameters: method as in doi:10.1016/j.jff.2008.09.010; conditions: single 100 mg/day dose, individuals of >60 years; cited from earlier work
# [9] = 200 mg/day with a main meal, 2-week supplementation, ten older men; cited from earlier work
# human dermal fibroblasts = test system: human dermal fibroblasts; parameters: method as in PMID 33482334; conditions: compared to ubiquinone; cited from earlier work
# [10] = parameters: method as in PMID 19096107; conditions: patients changed from ubiquinone to ubiquinol; cited from earlier work
# [11] = parameters: method as in PMID 33673604; conditions: 1500 mg/day, multiple-system atrophy; cited from earlier work
compound,measurement,setting,value
"COC1=C(OC)C(=O)C(C/C=C(\C)CC/C=C(\C)CC/C=C(\C)CC/C=C(\C)CC/C=C(\C)CC/C=C(\C)CC/C=C(\C)CC/C=C(\C)CC/C=C(\C)CCC=C(C)C)=C(C)C1=O [CoQ10, Coenzyme Q10]",orally administered absorption efficiency,[1],2–3%
NC(=O)c1cccnc1 [nicotinamide],reduction in the development of insulin-dependent diabetes mellitus,[2],50%
"COc1c(O)c(C)c(C/C=C(\C)CC/C=C(\C)CC/C=C(\C)CC/C=C(\C)CC/C=C(\C)CC/C=C(\C)CC/C=C(\C)CC/C=C(\C)CC/C=C(\C)CCC=C(C)C)c(O)c1OC [polymorph I, ubiquinol]",assay value of ubiquinol,[3],28.3%
"COc1c(O)c(C)c(C/C=C(\C)CC/C=C(\C)CC/C=C(\C)CC/C=C(\C)CC/C=C(\C)CC/C=C(\C)CC/C=C(\C)CC/C=C(\C)CC/C=C(\C)CCC=C(C)C)c(O)c1OC [polymorph II, ubiquinol]",assay value of ubiquinol,[3],94.2%
same,AUC (dissolution),[4],4500 µg·h/mL
same,"Cmax (dissolution, ubiquinol concentration)",[4],90 µg/mL
same,AUC (dissolution),[5],1500 µg·h/mL
same,"Cmax (dissolution, ubiquinol concentration)",[5],30 µg/mL
same,AUC0–8h,[6],0.1919 µg·h/mL
same,Cmax,[6],0.0712 µg/mL
same,MRT,[6],43.3 h
same,T1/2,[6],29.9 h
same,Tmax,[6],8.0 h
same,ubiquinol transformed to ubiquinone,[7],about 6.9%
COc1c(O)c(C)c(C/C=C(\C)CC/C=C(\C)CC/C=C(\C)CC/C=C(\C)CC/C=C(\C)CC/C=C(\C)CC/C=C(\C)CC/C=C(\C)CC/C=C(\C)CCC=C(C)C)c(O)c1OC [ubiquinol],increase of plasma AUC0–72h compared with ubiquinone,[8],430%
same,plasma AUC0–72h compared with subjects receiving ubiquinone,[8],4.3 fold
same,plasma CoQ10 status,[9],significant increase
same,"reverting the expression of the senescent phenotype (β-galactosidase positivity, p21, collagen type 1, elastin)",human dermal fibroblasts,more efficient
same,symptoms of heart failure,[10],significantly improved
same,decline in UMSARS part 2 score compared to placebo,[11],significantly smaller decline
same,tolerability,[11],well-tolerated
